Results from article PMC4076079, “Selective inhibitors of a PAF biosynthetic enzyme lysophosphatidylcholine acyltransferase 2” (Journal of Lipid Research, 2014).

Legend:
[1] = biological target: T1, mLPCAT1 (Mus musculus, UniProt Q3TFD2); test: acyltransferase activity assay, DPPC product; assay type: biochemical; settings: 20 μM compound; microsomal fractions of nonstimulated CHO-S-PAFR cells; n = 3, mean ± SEM
T1 construct: expressed in transfected cells; host or cells: CHO-S-PAFR cells, microsomal fraction
T1 sequence (Q3TFD2 1-534): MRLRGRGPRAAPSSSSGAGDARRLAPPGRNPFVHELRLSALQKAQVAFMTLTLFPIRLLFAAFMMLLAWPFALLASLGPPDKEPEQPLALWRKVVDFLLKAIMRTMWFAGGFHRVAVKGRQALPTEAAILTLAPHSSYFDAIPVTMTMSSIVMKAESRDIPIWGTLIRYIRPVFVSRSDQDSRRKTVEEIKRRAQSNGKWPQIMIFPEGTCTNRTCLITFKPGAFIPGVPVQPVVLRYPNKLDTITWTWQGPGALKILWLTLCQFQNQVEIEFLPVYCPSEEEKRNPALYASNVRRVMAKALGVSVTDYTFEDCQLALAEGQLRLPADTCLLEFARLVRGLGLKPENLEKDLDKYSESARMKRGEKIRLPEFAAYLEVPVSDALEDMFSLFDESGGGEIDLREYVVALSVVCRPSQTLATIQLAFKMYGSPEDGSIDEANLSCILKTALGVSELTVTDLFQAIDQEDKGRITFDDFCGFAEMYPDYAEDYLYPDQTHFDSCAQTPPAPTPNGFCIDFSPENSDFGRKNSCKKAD
Description: Microsomal protein fractions (0.5 μg) supplemented with the indicated compound concentrations were added to the reaction mixture containing 100 mM Tris-HCl (pH 7.4), 1 μM CaCl2, 0.015% Tween-20, and two substrates. For acetyltransferase activity, the substrates were 1 mM acetyl-CoA and 5 μM d4-lyso-PAF; for the acyltransferase activity of LPCAT1 or LPCAT2, the substrates were, respectively, palmitoyl-CoA and d31-16:0 LPC or arachidonoyl-CoA and d4-lyso-PAF (all 5 μM). Each lysophospholipid contained fatty acid at the sn-1 position. After incubation at 37°C for 5 min, the reactions were stopped by adding 300 μl methanol containing 17:0 LPC or 14:0/14:0 PC as an internal standard. Deuterium-labeled products were analyzed by LC-MS/MS (Waters, Milford, MA and Thermo Scientific, Waltham, MA). […]
arachidonoyl-CoA, 5 µM; palmitoyl-CoA, 5 µM; d4-lyso-PAF, 5 µM; and d31-LPC, 5 µM. […]
deuterium-labeled products were measured by LC-MS/MS. […]
Step 7 screening: species-specific differences
To evaluate the effects on the activity of mouse or human LPCAT1 and LPCAT2, each microsomal fraction was obtained using CHO-S-PAFR cells with or without mcPAF (200 nM) stimulation for 5 min. Acetyltransferase and acyltransferase assays were performed with 20 µM of each compound. Percentage inhibition was calculated in each

[2] = tested on: PLA2; test: PLA2 assay; assay type: biochemical, mouse; settings: 20 μM compound, soluble protein fraction of peritoneal macrophages; data not shown
Description: PAF-AH and PLA2 activities were determined as previously described ([3]). Briefly, a soluble protein fraction of peritoneal macrophages was incubated with 20 μM of each compound at 37°C for 30 min in a total volume of 0.1 ml. For the PAF-AH assay, the reaction mixture contained 2.5 μg protein, 50 mM Tris-HCl (pH 7.4), 5 mM EDTA, 5 mM 2-mercaptoethanol, and 1 μM d4-PAF. For the PLA2 assay, 10 μg protein was incubated in buffer containing 100 mM Tris-HCl (pH 7.4), 1 mg/ml BSA, 4 mM CaCl2, 1 mM DTT, and 2 μM 16:0/20:4 alkyl-PC. A cytosolic PLA2 inhibitor, pyrrophenone (Sigma-Aldrich), was used as a positive control. The reactions were stopped with 0.27 ml of chloroform/methanol (1:2, v/v), followed by the sequential addition of an internal standard (17:0 LPC or d4-lyso-PAF), 0.11 ml chloroform, and 0.1 ml water. Lipids were extracted using the Bligh and Dyer method ([26]). The PAF-AH and PLA2 activities were measured by detecting d4-lyso-PAF and nonlabeled lyso-PAF, respectively, using LC-MS/MS.

[3] = tested on: mouse peritoneal macrophages; test: PAF and lyso-PAF production in LPS-primed, A23187-stimulated peritoneal macrophages; assay type: cell-based; settings: 5 μM A23187 5 min
Description: RAW-mLPCAT2 cells and peritoneal macrophages were seeded in 24-well plates (4 × 10^6 cells/well) for 24 or 2 h, respectively, before treatment. RAW-mLPCAT2 cells were stimulated with 5 μM A23187 for 5 min after a 1 h treatment with the compounds. Peritoneal macrophages were preincubated with 100 ng/ml LPS for 18 h, treated with the compounds for 1 h, and stimulated with 5 μM A23187 for 5 min. To analyze cellular PAF levels, lipids were extracted with 500 μl methanol containing d4-PAF and d4-lyso-PAF as internal standards. Each sample was submitted to solid phase extraction using an Oasis HLB 96-well cartridge cluster (Waters), and PAF and lyso-PAF were measured by LC-MS/MS as previously described ([13]).
Chromatography was performed using an Acquity™ Ultra-performance LC system (Waters) coupled to a TSQ Vantage triple stage quadrupole mass spectrometer (Thermo Scientific) with a HESI-II electrospray ionization source ([13]). Phospholipids were separated on BEH C8 columns (1.7 μm, 2.1 × 30 mm or 1 × 100 mm; Waters) for the analysis of assay products or the composition of cellular PAF and lyso-PAF, respectively. The mobile phase contained 20 mM aqueous ammonium bicarbonate and acetonitrile. The extracts from peritoneal macrophages were separated on a Kinetex C8 column (1.7 μm, 2.1 × 100 mm; Phenomenex, Torrance, CA) by a gradient elution with 0.05% formic acid-water and acetonitrile, using the Nexera X2 system and LCMS-8080 mass spectrometer (Shimadzu, Kyoto, Japan) ([13]). Lyso-PAF, d4-PAF, and d31-DPPC were identified by the choline fragment (m/z 184) as a product ion of selected reaction monitoring in the positive ion mode. Nonlabeled PAF and d4-16:0/20:4 alkyl-PC were determined by fatty acid anions of sn-2 composition (m/z 59 and 303, respectively) in the negative ion mode. […] Signal intensities were determined relative to the internal standard or as the percentage of the positive control.
The effect of TSI-01 on PAF and lyso-PAF biosynthesis was evaluated using thioglycollate-elicited mouse peritoneal macrophages. […]

Compound | percentage inhibition, product DPPC, mLPCAT1 [1] [percentage] | PLA2 activity [2] | PAF levels ([3]; 60 μM TSI-01, LPS 18 h, compound 1 h) | PAF levels in A23187-stimulated cells ([3]; LPS 100 ng/ml 18 h, TSI-01 1 h) | lyso-PAF levels ([3]; LPS 100 ng/ml 18 h, TSI-01 1 h)
CC(C)OC(=O)c1ccc(N2C(=O)C(Cl)=C(Nc3ccccc3O)C2=O)cc1 [TSI-07] | 36.3 ± 5.7 | – | – | – | –
CCCCOC(=O)c1ccc(N2C(=O)C(Cl)=C(Cl)C2=O)cc1 [TSI-11, butyl 4-(3,4-dichloro-2,5-dioxopyrrol-1-yl)benzoate] | 12.2 ± 20.5 | – | – | – | –
CCCOC(=O)c1ccc(N2C(=O)C(Cl)=C(Cl)C2=O)cc1 [TSI-10] | 14.8 ± 10.9 | – | – | – | –
CC(C)OC(=O)c1ccc(N2C(=O)C(Cl)=C(Cl)C2=O)cc1 [TSI-01, propan-2-yl 4-(3,4-dichloro-2,5-dioxopyrrol-1-yl)benzoate] | 28.2 ± 4.0 | not PLA2 activity | below the detection limit | decreased | not changed
